Reference: US20080051463A1, “ANTHRACENE COMPOUNDS AND THEIR USE FOR TREATING BENIGN AND MALIGNANT TUMOR DISORDERS” (AETERNA ZENTARIS GmbH, priority 2006, published 2008)
Converted amounts (≈) assume the structure as drawn. “And” between values parts separate entries of the source, which are not always exact repeats. Equal entries are not always repeated.

Columns and labels:
[1] = test system: human glioblastoma cell line SF-268; assay: Proliferation test (cellular dehydrogenase activity), SF-268; format: cell-based
Excerpt: (§1) The antiproliferative activity of the compounds 1, 2, 4, 6, 7, 9, 10, 11, 12 and 13 according to the invention was investigated in a proliferation test performed on established tumor cell lines (D. A. Scuderio et al. Cancer Res. 1988, 48: 4827-4833).
(§2) The test used determines the cellular dehydrogenase activity and makes it possible to determine cell viability and determine cell number indirectly.
(§3) The cell lines used are the human cervical carcinoma cell line KB/HeLa (ATCC CCL17), the ovarian adenocarcinoma cell line SKOV-3 (ATCC HTB77), the human glioblastoma cell line SF-268 (NCI-503138) and the lung carcinoma cell line NCI-H460 (NCI-503473). In addition, an RKOp27 cell system was used for investigating the cell cycle-specific effect of the substance (M. Schmidt et al. Oncogene 2000, 19(20): 2423-9).

[2] = test system: ovarian adenocarcinoma cell line SKOV-3; assay: Proliferation test (cellular dehydrogenase activity), SK-OV-3; format: cell-based; conditions: Homo sapiens
Excerpt: as §1, §2, §3

[3] = test system: lung carcinoma cell line NCI-H460; assay: Proliferation test (cellular dehydrogenase activity), NCI-H460; format: cell-based; conditions: Homo sapiens
Excerpt: as §1, §2, §3

[4] = test system: RKOp27 human colon carcinoma cells; assay: Proliferation test, RKOp27 cell system without p27kiP1 expression; format: cell-based; conditions: RKOp27 without expression of p27kiP1
Excerpt: as §1, §2, §3
(§4) RKO is a human colon carcinoma line in which expression of the cell cycle inhibitor p27^kiP1 can be induced using the ecdysone expression system and lead to cell cycle arrest specifically in […].
(§5) By contrast, cell cycle-specific substances, such as, for example, tubulin inhibitors, are only cytotoxic when cells are not arrested and the cell cycle is passed through.

[5] = test system: human cervical carcinoma cell line KB/HeLa; assay: Proliferation test (cellular dehydrogenase activity), KB/HeLa; format: cell-based
Excerpt: as §1, §2, §3

[6] = test system: RKOp27 human colon carcinoma cells, p27kiP1 induced; assay: Proliferation test, RKOp27 cell system with induced p27kiP1 expression; format: cell-based; conditions: RKOp27 with induced expression of p27kiP1, read-out: RKOP27ind EC50
Excerpt: as §1, §2, §3, §4, §5

porcine brain tubulin = test system: T1, porcine brain tubulin; assay: Inhibition of the polymerization of porcine brain tubulin (turbidimetric); format: biochemical; conditions: porcine brain tubulin with about 15% MAPs, GTP, 37° C.
T1 construct: In addition to tubulin, the protein used comprises about 15% of associated proteins (MAPs)
Protocol: b) In an in vitro test, the compounds 1, 2, 4 and 7 were tested for inhibition of the polymerization of porcine brain tubulin. In this test, tubulin purified by polymerization and depolymerization cycles is used (Shelanski et al. Proc. Natl. Acad. Sci. U.S.A. 1973, 70, 765-768 modified according to Vater et al. Acta Histochem. Suppl. 1986, 33, 123-129), which is polymerized by addition of GTP and heating to 37° C. In addition to tubulin, the protein used comprises about 15% of associated proteins (MAPs). The measurement values were determined turbidimetrically according to Gaskin et al. J. Mol. Biol. 89 (1974) 737-755.
Table 3 states the EC50 value of the polymerization inhibition.

bovine tubulin = assay: Inhibition of the polymerization of bovine tubulin (in vitro); format: biochemical; conditions: for Inhibition at 10 μg/ml [%]: tubulin with 30% associated proteins (MAPs), repeat values; for EC50 of polymerization inhibition of tubulin: bovine tubulin with 30% associated proteins (MAPs)
Excerpt: In this test, tubulin purified by polymerization and depolymerization cycles is used, which is polymerized by addition of GTP and heating.
Table 1 states the %-inhibition values and Table 2 states the EC50 values of polymerization inhibition of tubulin with 30% associated proteins (MAPs).

[7] = test system: acute myeloid leukaemia cell line LT12; assay: XTT antiproliferative test, LT12; format: cell-based; conditions: LT12 wild type; for IC50: Rattus norvegicus, LT12, XTT; for LT12 IC50: XTT
Excerpt: (§6) For further characterization, the compounds 6 and 7 according to the invention were investigated with regard to multidrug-resistant (MDR) cell lines as compared with the nonresistant wild-type cell lines.
(§7) The cell lines which were investigated are the murine cell line L1210 (ATCC CCL219), the acute myeloid leukaemia cell line LT12 (De Vries et al.; University Rotterdam) and the resistant lines L1210/VCR (Asta Medica Laboratory) and LT12/mdr (De Vries et al.; University Rotterdam).

[8] = test system: doxorubicin-resistant P388 cell line; assay: XTT antiproliferative test, doxorubicin-resistant P388; format: cell-based, murine; conditions: for IC50: Mus musculus, P388, XTT, read-out: P388ADR IC50; for P388ADR IC50: XTT
Excerpt: as §6
(§8) The murine P388 cell line (methylcholanthrene-induced lymphoid neoplasm) [R. Supino et al.; Inst. Nazionale per lo Studio e las cura die Tumori; Milan)] and the doxorubicin-resistant P388 cell line (NSC-123127) were also included as test systems.

murine P388 cell line = assay: XTT antiproliferative test, P388; format: cell-based; conditions: P388 wild type; for IC50: Mus musculus, P388, XTT; for P388 IC50: XTT
Excerpt: as §6, §8

murine cell line L1210 = assay: XTT antiproliferative test, L1210; format: cell-based; conditions: L1210 wild type; for IC50: Mus musculus, L1210, XTT; for L1210 IC50: XTT
Excerpt: as §6, §7

resistant line LT12/mdr = assay: XTT antiproliferative test, LT12/mdr; format: cell-based
Excerpt: as §6, §7

resistant line L1210/VCR = assay: XTT antiproliferative test, L1210/VCR; format: cell-based, murine
Excerpt: as §6, §7

KB/HeLa cells = assay: Cell cycle analysis (G2/M arrest) in KB/HeLa cells; format: cell-based; conditions: Homo sapiens, 24 h, 24 hours at 37° C., 0.1-1000 nM, read-out: EC50 [nM] (50% cells in G2/M)
Protocol: For the cell cycle analysis, KB/HeLa cells (ATCC CCL17) were treated with different concentrations (0.1-1000 nM) of the test substances at 37° C. for 24 hours.
The percentage of cells arrested in the G2/M phase of the cell cycle after treatment with compounds according to the invention and selected reference substances is shown in Table 9 below. The results were analysed using special analytical software (ModFit™).

melting point [°C]	EC50 [3] [mg/L]	EC50 [4] [mg/L]	EC50 [5] [mg/L]	EC50 [6] [mg/L]	SMILES	Inhibition at 10 μg/ml [%] (bovine tubulin)	also measured
200 to 201	0.931 (≈ 2.69 µM)	0.802 (≈ 2.32 µM)	0.248 (≈ 0.716 µM)	> 3.16	COc1csc(C(=O)C=C2c3ccccc3C(=O)c3ccccc32)c1 [Compound 2, 10-[2-(4-methoxy-thiophen-2-yl)-2-oxo-ethylidene]-10H-anthracen-9-one]		EC50 [1]: 0.331 mg/L (≈ 0.956 µM); EC50 [2]: 0.416 mg/L (≈ 1.2 µM); EC50 of the polymerization inhibition (porcine brain tubulin): 2.3 mg/L
177 to 178					O=C1c2ccccc2C(=CC(=O)N2CCSCC2)c2ccccc21 [Compound 3, 10-(2-oxo-2-thiomorpholin-4-ylethylidene)-10H-anthracen-9-one]		
169 to 172	0.203 (≈ 0.593 µM)	0.108 (≈ 0.315 µM)	0.181 (≈ 0.529 µM)	> 3.16	COc1ccc(C(=O)C=C2c3ccccc3C(O)c3ccccc32)cc1 (centres unmarked) [Compound 4, 2-(10-hydroxy-10H-anthracen-9-ylidene)-1-(4-methoxy-phenyl)-ethanone]		EC50 [1]: 0.227 mg/L (≈ 0.663 µM); EC50 [2]: 0.171 mg/L (≈ 0.499 µM); EC50 of the polymerization inhibition (porcine brain tubulin): 1.2 mg/L
189 to 190					COc1ccc(N2CCN(C(=O)C=C3c4ccccc4C(=O)c4ccccc43)CC2)cc1 [Compound 5, 10-{2-[4-(4-methoxy-phenyl)-piperazin-1-yl]-2-oxo-ethylidene}-10H-anthracen-9-one]		
160	0.29 (≈ 0.783 µM)	0.24 (≈ 0.648 µM)	0.458 (≈ 1.24 µM)	> 3.16	COc1ccc(C(=O)C=C2c3ccccc3C(=O)c3ccccc32)cc1OC [Compound 6, 10-[2-(3,4-dimethoxy-phenyl)-2-oxo-ethylidene]-9(10H)-anthracenone]	68.9% and 86.1% and 99.0%	IC50 [7]: 0.1 mg/L (≈ 0.27 µM); LT12 IC50 [7]: 0.17 mg/L; IC50 [8]: 0.25 mg/L (≈ 0.675 µM); P388ADR IC50 [8]: 0.49 mg/L; IC50 (murine P388 cell line): 0.35 mg/L (≈ 0.945 µM); P388 IC50 (murine P388 cell line): 0.39 mg/L; IC50 (murine cell line L1210): 0.32 mg/L (≈ 0.864 µM); L1210 IC50 (murine cell line L1210): 0.35 mg/L
120 to 122	0.025 (≈ 0.0734 µM)	0.027 (≈ 0.0793 µM)	0.02 (≈ 0.0588 µM)	> 3.16	COc1ccc(C(=O)C=C2c3ccccc3C(=O)c3ccccc32)cc1 [Compound 7, 10-[2-(4-methoxy-phenyl)-2-oxo-ethylidene]-10H-anthracen-9-one]	99.1% and 100.0%	EC50 [1]: 0.02 mg/L (≈ 0.0588 µM); EC50 of polymerization inhibition of tubulin (bovine tubulin): 1.38 mg/L and 1.50 mg/L; IC50 (resistant line LT12/mdr; Rattus norvegicus, LT12, XTT, read-out: LT12mdr IC50): 0.015 mg/L (≈ 0.0441 µM); LT12mdr IC50 (resistant line LT12/mdr; XTT): 0.020 mg/L; EC50 [2]: 0.02 mg/L (≈ 0.0588 µM); IC50 [7]: 0.015 mg/L (≈ 0.0441 µM); LT12 IC50 [7]: 0.019 mg/L; IC50 [8]: 0.016 mg/L (≈ 0.047 µM); P388ADR IC50 [8]: 0.018 mg/L; IC50 (murine P388 cell line): 0.014 mg/L (≈ 0.0411 µM); P388 IC50 (murine P388 cell line): 0.015 mg/L; IC50 (resistant line L1210/VCR; Mus musculus, L1210, XTT, read-out: L1210VCR IC50): 0.017 mg/L (≈ 0.0499 µM); L1210VCR IC50 (resistant line L1210/VCR; XTT): 0.018 mg/L; IC50 (murine cell line L1210): 0.016 mg/L (≈ 0.047 µM); L1210 IC50 (murine cell line L1210): 0.017 mg/L; EC50 of the polymerization inhibition (porcine brain tubulin): 0.5 mg/L
176 to 178					COc1ccc(C(=O)C=C2c3ccccc3C(=O)c3ccccc32)c(O)c1OC [Compound 8, 10-[2-(2-hydroxy-3,4-dimethoxy-phenyl)-2-oxo-ethylidene]-10H-anthracen-9-one]		
129	0.11 (≈ 0.339 µM)	0.09 (≈ 0.277 µM)	0.2 (≈ 0.617 µM)	> 3.16	Cc1ccc(C(=O)C=C2c3ccccc3C(=O)c3ccccc32)cc1 [Compound 9, 10-(2-oxo-2-p-tolyl-ethylidene)-10H-anthracen-9-one]	98.3% and 99.8% and 100.0%	EC50 [1]: 0.2 mg/L (≈ 0.617 µM); EC50 of polymerization inhibition of tubulin (bovine tubulin): 0.49 mg/L; EC50 [2]: 0.13 mg/L (≈ 0.401 µM)
211 to 212	1.34 (≈ 4.11 µM)	1.38 (≈ 4.23 µM)	2.65 (≈ 8.12 µM)	> 3.16	O=C(C=C1c2ccccc2C(=O)c2ccccc21)c1ccc(O)cc1 [Compound 10, 10-[2-(4-hydroxy-phenyl)-2-oxo-ethylidene]-10H-anthracen-9-one]	85.0% and 94.8% and 98.4% and 98.6%	EC50 of polymerization inhibition of tubulin (bovine tubulin): 4.87 mg/L
126	1.05 (≈ 3.32 µM)		2.65 (≈ 8.38 µM)	> 3.16	O=C(C=C1c2ccccc2C(=O)c2ccccc21)c1cccs1 [Compound 11, 10-(2-oxo-2-thiophen-2-yl-ethylidene)-10H-anthracen-9-one]		
185	0.61 (≈ 1.87 µM)	0.63 (≈ 1.93 µM)	1.4 (≈ 4.29 µM)	> 3.16	O=C(C=C1c2ccccc2C(=O)c2ccccc21)c1cccc(O)c1 [Compound 12, 10-[2-(3-hydroxy-phenyl)-2-oxo-ethylidene]-10H-anthracen-9-one]	83.1% and 95.0% and 92.7% and 86.9%	EC50 [1]: 2.22 mg/L (≈ 6.8 µM); EC50 [2]: 3.03 mg/L (≈ 9.28 µM)
	1.16 (≈ 3.41 µM)	1.1 (≈ 3.23 µM)	1.89 (≈ 5.55 µM)	> 3.16	COc1cccc(C(=O)C=C2c3ccccc3C(=O)c3ccccc32)c1 [Compound 13, 10-[2-(3-methoxy-phenyl)-2-oxo-ethylidne]-10H-anthracen-9-one]	72.6% and 85.9% and 87.3% and 93.7%	
113					COC(=O)C=C1c2ccccc2C(=O)c2ccccc21 [Compound 15, (10-oxo-10H-anthracen-9-ylidene)-acetic acid methyl ester]		
151 to 152					COc1cc(C(=O)C=C2c3ccccc3C(=O)c3ccccc32)cc(OC)c1OC [Compound 16, 10-[2-oxo-2-(3,4,5-trimethoxy-phenyl)-ethylidene]-10H-anthracen-9-one]	65.0% and 65.5% and 61.9%	
180 to 182					O=C(O)C=C1c2ccccc2C(=O)c2ccccc21 [Compound 17, (10-oxo-10H-anthracen-9-ylidene)-acetic acid]		
128					O=C(C=C1c2ccccc2C(=O)c2ccccc21)c1ccccc1 [Compound 18, 10-(2-oxo-2-phenyl-ethylidene)-10H-anthracen-9-one]	54.9% and 69.9% and 79.8% and 71.0%	
					CC(=O)O[C@H]1C(=O)[C@@]2(C)[C@H]([C@H](OC(=O)c3ccccc3)[C@]3(O)C[C@H](OC(=O)[C@H](O)[C@@H](NC(=O)c4ccccc4)c4ccccc4)C(C)=C1C3(C)C)[C@]1(OC(C)=O)CO[C@@H]1C[C@@H]2O [Paclitaxel]		EC50 (KB/HeLa cells): 26.9 nM
